According to PubChem BioAssay AID652226 (The Scripps Research Institute Molecular Screening Center, 2013):
The source made the active and inactive calls.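 The calls were made as follows: active = compounds blocking PP5 with IC50 under 10 µM; inactive = the rest.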

Molecular target: Serine/threonine-protein phosphatase 5 (Homo sapiens) (UniProt P53041)
Experiment: PP5 phosphatase inhibitor potency, late-stage follow-up, selectivity assay for PP1 inhibitor project, biochemical, fluorescence, OMFP substrate, set 1 (AID 652226)
Conditions: purified PP5c, OMFP dephosphorylation

Chain of Serine/threonine-protein phosphatase 5 (Homo sapiens) (P53041 whole entry, looked up): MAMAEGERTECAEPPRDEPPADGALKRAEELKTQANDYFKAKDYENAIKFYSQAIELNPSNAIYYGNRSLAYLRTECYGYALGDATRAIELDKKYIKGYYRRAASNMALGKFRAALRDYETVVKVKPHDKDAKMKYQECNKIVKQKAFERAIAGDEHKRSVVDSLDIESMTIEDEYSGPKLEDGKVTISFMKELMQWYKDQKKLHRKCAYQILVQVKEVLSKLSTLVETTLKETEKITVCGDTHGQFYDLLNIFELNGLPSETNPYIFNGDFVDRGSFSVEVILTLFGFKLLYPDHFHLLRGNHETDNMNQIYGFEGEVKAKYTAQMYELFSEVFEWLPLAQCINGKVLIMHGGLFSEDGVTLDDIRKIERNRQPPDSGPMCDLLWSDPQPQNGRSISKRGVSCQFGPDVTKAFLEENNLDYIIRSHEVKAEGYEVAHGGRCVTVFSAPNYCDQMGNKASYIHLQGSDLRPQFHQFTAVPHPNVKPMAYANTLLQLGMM

IC50 | SMILES
inactive | Oc1c(C(c2ccccn2)N2CCOCC2)cc(Cl)c2cccnc12 (stereo not drawn)
inactive | Oc1c(Cc2ccccn2)ccc2cccnc12
inactive | CN1CCN(C(c2ccccn2)c2ccc3cccnc3c2O)CC1 (stereo not drawn)
